# Assay results taken from publication PMC8945599, “VEGFA, B, C: Implications of the C-Terminal Sequence Variations for the Interaction with Neuropilins” (Biomolecules, 2022).
# Where no end group is shown, it is not given here.
# Assays:
# [1] = biological target: T1, NRP1-b1 (b1 domain of Neuropilin-1) (Homo sapiens, UniProt O14786); test: Surface plasmon resonance, peptide binding to immobilised NRP1-b1; details: SPR, Biacore T200, protein immobilised on CM5 chip (1000 RU), peptide 64 µM to 0.125 µM, 20 mM Tris pH 7.9, 50 mM NaCl
# T1 construct: 6-His-tag with TEV protease cleavage site (N); made in house; host or cells: Rosetta-gami2(DE3)pLysS E. coli
# T1 sequence (O14786 275-424 limits assumed): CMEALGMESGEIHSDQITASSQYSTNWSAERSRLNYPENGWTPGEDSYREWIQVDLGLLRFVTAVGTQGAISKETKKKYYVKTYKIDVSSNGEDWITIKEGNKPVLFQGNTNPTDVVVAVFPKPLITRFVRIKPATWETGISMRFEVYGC
# Text: (§1) Proteins were expressed and purified as previously described. NRP1-b1 and NRP2-b1 were expressed in Rosetta-gami2(DE3)pLysS E.coli cells that were transformed with a pET-15b vector containing NRP1-b1 and NRP2-b1 sequences with an N-terminal 6-His-tag and a TEV protease cleavage site. After the cells were harvested by centrifugation and lysed by sonication, the proteins were purified from the filtered cell extract. Purification protocol, as described in Tsai et al. (2016), included a combination of nickel ion-affinity chromatography, size exclusion, and a final ion exchange chromatography step.
# (§2) SPR was performed using the Biacore T200 Enhanced Sensitivity model (GE, Healthcare, UK). Protein was immobilised on a CM5 chip, following the manufacturer’s instructions until it reached 1000 response units (RU). SPR was run with a range of peptide concentrations from 64 µM to 0.125 µM, in a buffer of 20 mM Tris pH 7.9, 50 mM NaCl. Biacore T200 evaluation software was used for data analysis.
# [2] = biological target: T2, NRP2-b1 (b1 domain of Neuropilin-2) (Homo sapiens, UniProt O60462); test: Surface plasmon resonance, peptide binding to immobilised NRP2-b1; details: SPR, Biacore T200, protein immobilised on CM5 chip (1000 RU), peptide 64 µM to 0.125 µM, 20 mM Tris pH 7.9, 50 mM NaCl
# T2 construct: 6-His-tag with TEV protease cleavage site (N); made in house; host or cells: Rosetta-gami2(DE3)pLysS E. coli
# T2 sequence (O60462 277-427 limits assumed): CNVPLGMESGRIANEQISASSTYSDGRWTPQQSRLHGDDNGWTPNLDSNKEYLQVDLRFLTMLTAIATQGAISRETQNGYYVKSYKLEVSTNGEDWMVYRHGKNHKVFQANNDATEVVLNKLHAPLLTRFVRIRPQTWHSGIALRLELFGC
# Text: as §1, §2
# NRP1-b1 = biological target: T3, NRP1-b1 (Homo sapiens, UniProt O14786); test: Thermostability shift assay, NRP1-b1; format: binding; details: 5 µM protein, 1 mM ligand, 10X SYPRO Orange, LightCycler 480 II; average of four measurements
# T3 construct: 6-His-tag with TEV protease cleavage site (N); made in house; host or cells: Rosetta-gami2(DE3)pLysS E. coli
# T3 sequence (O14786 275-424 limits assumed): T1 sequence (O14786 275-424 limits assumed)
# Description: Thermostability assays were performed on the LightCycler 480 II (Roche) with a final concentration of 5 µM protein, 1 mM ligand and 10X of SYPRO Orange, in DMSO (Thermo Fisher). Negative and positive control experiments were performed using the protein with buffer alone or the ligand without protein and the protein with a strongly binding ligand EG01377, respectively. Experiments were carried out in duplicates on two separate days for two different batches of protein preparations and the values in the table represent the averages from the four measurements.
Substance,Kd [1] [µM],Kd [2] [µM],shift in Tm (ΔTm) of NRP1-b1 (NRP1-b1) [°C]
"Ac-AAAAR [Con, reference compound]",33.1,92.2,3.0 ± 0.2
Ac-DKPRR [A165],7.87,30.9,3.5 ± 0.2
Ac-RKLRR [B167],4.12,13,–
Ac-RPQPR [B186],10,24.8,3.6 ± 0.2
Ac-SIIRR [C],33.2,27.1,2.0 ± 0.3
